Results as given in patent US12448388B2, “PRMT5 inhibitors and uses thereof” (Gilead Sciences, Inc., priority 2023, dated 2025).
Read-outs that look alike come from different tables or passages of the source.

Key:
[1] = system: Symmetric Di-methyl Arginine (SDMA) signal (PRMT5 inhibition) in HCT116 MTAP-deleted cells; experiment: Symmetric di-methyl arginine image-based high content screen assay (SDMA assay), HCT116 MTAP-deleted; assay type: cell-based; details: for EC50: class symbols
Summary of the method: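 HCT116 WT and MTAP-deleted cells (800/well, RPMI 1640 + 10% FBS) treated with compound 3 days at 37 °C; formalin-fixed, stained with anti-SDMA antibody/Alexa 488 plus DAPI. Mean SDMA intensity per DAPI-defined cell imaged; EC50 from 4-parameter logistic fit.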

[2] = system: HCT116 MTAP-deleted cell lines; experiment: Cell viability assay (CellTiter-Glo, 7 days), HCT116 MTAP-deleted; assay type: cell-based; design: CC50 selectivity: unit not given beside the values
Summary of the method: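 HCT116 MTAP-deleted and wild-type cells exposed to serially diluted compound for 7 days at 37 °C, 5% CO2. Viability read by CellTiter-Glo luminescence; CC50 derived per line, with selectivity comparing WT to MTAP-deleted, limited solubility can inflate values marked *.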

[3] = HCT116 WT vs HCT116 MTAP-deleted
[4] = Homo sapiens, HCT-116, HCT116 MTAP-deleted
[5] = Homo sapiens, HCT-116, cell viability assay, HCT116 MTAP-deleted, class symbols, read-out: CC50
[6] = HCT116 WT versus HCT116 MTAP-deleted
[7] = Homo sapiens, HCT-116, cell viability, HCT116 MTAP-deleted, class symbols, read-out: CC50

Row | EC50 selectivity [1, 3] | EC50 [1, 4] [nM] | EC50 selectivity [1, 6] | SMILES | CC50 [2, 5] [nM] | CC50 [2, 7] [nM] | EC50 ([1]; HCT116 MTAP-deleted) [nM] | CC50 [2] [nM] | CC50 selectivity [2]
1 | 58 | 1 to 5 | – | Cc1ncn2c1c(N)nc1cnc(C(=O)N3C[C@H](C)C[C@@H]4Oc5cc(OC(F)(F)F)ccc5[C@@H]43)cc12 [Ff-619, (4-amino-3-methylimidazo[1,5-a]pyrido[3,4-e]pyrazin-8-yl)((3R,4aS,9bS)-3-methyl-7-(trifluoromethoxy)-3,4,4a,9b-tetrahydrobenzofuro[3,2-b]pyridin-1(2H)-yl)methanone] | < 100 | – | – | – | –
2 | 151 | 1 to 5 | – | Cc1ncn2c1c(N)nc1ccc(C(=O)N3C[C@@H](C)O[C@@H]4Cc5cc(C(F)(F)F)ccc5[C@@H]43)cc12 [Fg-35, (4-amino-3-methylimidazo[1,5-a]quinoxalin-8-yl)((2R,4aS,9aR)-2-methyl-7-(trifluoromethyl)-2,3,9,9a-tetrahydroindeno[2,1-b][1,4]oxazin-4(4aH)-yl)methanone] | < 100 | – | – | – | –
3 | 415 | 1 to 5 | – | Cc1ncc2c(N)nc3ccc(C(=O)N4CCC[C@@H]5Oc6cc(OC(F)(F)F)ccc6[C@@H]54)cc3n12 [Ff-640, (4-amino-1-methylimidazo[1,5-a]quinoxalin-8-yl)((4aS,9bS)-7-(trifluoromethoxy)-3,4,4a,9b-tetrahydrobenzofuro[3,2-b]pyridin-1(2H)-yl)methanone] | < 100 | – | – | – | –
4 | – | ≤ 1 | 88 | Nc1nc2cc(Cl)c(C(=O)N3CCOC[C@@H]3c3ccc(C(F)(F)F)cc3)cc2n2cncc12 [Ff-289, (S)-(4-amino-7-chloroimidazo[1,5-a]quinoxalin-8-yl)(3-(4-(trifluoromethyl)phenyl)morpholino)methanone] | – | < 100 | – | – | –
5 | 457 | > 5 | – | CN(C(=O)c1cc2c(cc1F)nc(N)c1cncn12)[C@@H]1COc2cc(F)ccc21 [Ff-568, (S)-4-amino-N-(6-fluoro-2,3-dihydrobenzofuran-3-yl)-7-fluoro-N-methylimidazo[1,5-a]quinoxaline-8-carboxamide] | 100 to 1000 | – | – | – | –
6 | 39 | 1 to 5 | – | Cc1ncn2c(N)nc3ccc(C(=O)N(Cc4ccc(C(F)(F)F)cn4)[C@H](C)c4ncccn4)cc3c12 [Fg-2, (R)-5-amino-1-methyl-N-(1-(pyrimidin-2-yl)ethyl)-N-((5-(trifluoromethyl)pyridin-2-yl)methyl)imidazo[1,5-c]quinazoline-9-carboxamide] | < 100 | – | – | – | –
7 | – | 1 to 5 | 127 | Cc1ncc2c(N)nc3cc(F)c(C(=O)N(C)[C@@H]4COCc5nc(C(F)(F)F)ccc54)cc3n12 [Ff-304, (S)-4-amino-7-fluoro-N,1-dimethyl-N-(2-(trifluoromethyl)-5,8-dihydro-6H-pyrano[3,4-b]pyridin-5-yl)imidazo[1,5-a]quinoxaline-8-carboxamide] | – | < 100 | – | – | –
8 | 162 | ≤ 1 | – | C[C@@H]1C[C@@H]2Oc3cc(OC(F)(F)F)ccc3[C@@H]2N(C(=O)c2ccc3nc(N)c4cncn4c3c2)C1 [Ff-616, (4-aminoimidazo[1,5-a]quinoxalin-8-yl)((3R,4aS,9bS)-3-methyl-7-(trifluoromethoxy)-3,4,4a,9b-tetrahydrobenzofuro[3,2-b]pyridin-1(2H)-yl)methanone] | < 100 | – | – | – | –
9 | – | 1 to 5 | 67 | C[C@@H]1C[C@@H]2Cc3nc(C(F)(F)F)ccc3[C@@H]2N(C(=O)c2cc3c(cc2F)nc(N)c2cncn23)C1 (racemic) [Ff-321, Rac-(4-amino-7-fluoroimidazo[1,5-a]quinoxalin-8-yl)((4bR,7R,8aR)-7-methyl-2-(trifluoromethyl)-4b,6,7,8,8a,9-hexahydro-5H-cyclopenta[1,2-b:3,4-b′]dipyridin-5-yl)methanone] | – | < 100 | – | – | –
10 | 252 | ≤ 1 | – | CC(C)N(Cc1ccc(C(F)(F)F)cc1F)C(=O)c1ccc2nc(N)c3cncn3c2c1 [Ff-412, 4-amino-N-[[2-fluoro-4-(trifluoromethyl)phenyl]methyl]-N-isopropyl-imidazo[1,5-a]quinoxaline-8-carboxamide] | < 100 | – | – | – | –
11 | – | ≤ 1 | 224 | CN(C(=O)c1cc2c(cc1F)nc(N)c1cncn12)[C@@H](c1ccc(C(F)(F)F)cc1F)C(F)F [Fb-8, (S)-4-amino-N-(2,2-difluoro-1-(2-fluoro-4-(trifluoromethyl)phenyl)ethyl)-7-fluoro-N-methylimidazo[1,5-a]quinoxaline-8-carboxamide] | – | < 100 | – | – | –
12 | – | ≤ 1 | 32 | CN(C(=O)C1CC1)N(Cc1ccc(C(F)(F)F)cc1F)C(=O)c1cc2c(cc1F)nc(N)c1cncn12 [Fb-3, 4-amino-N′-(cyclopropanecarbonyl)-7-fluoro-N-(2-fluoro-4-(trifluoromethyl)benzyl)-N′-methylimidazo[1,5-a]quinoxaline-8-carbohydrazide] | – | < 100 | – | – | –
13 | – | 1 to 5 | 153 | CN(C(=O)c1cc2c(cc1F)nc(N)c1cncn12)[C@@H]1COc2cc(-c3cnn(C(F)F)c3)ccc21 [Ff-213, (S)-4-amino-N-(6-(1-(difluoromethyl)-1H-pyrazol-4-yl)-2,3-dihydrobenzofuran-3-yl)-7-fluoro-N-methylimidazo[1,5-a]quinoxaline-8-carboxamide] | – | < 100 | – | – | –
14 | 157 | 1 to 5 | – | CN(C(=O)c1cc2c(cc1F)nc(N)c1cncn12)[C@@H]1COc2cc(-n3cc(C(F)(F)F)cn3)ccc21 [Ff-545, (S)-4-amino-7-fluoro-N-methyl-N-(6-(4-(trifluoromethyl)-1H-pyrazol-1-yl)-2,3-dihydrobenzofuran-3-yl)imidazo[1,5-a]quinoxaline-8-carboxamide] | < 100 | – | – | – | –
15 | – | 1 to 5 | 48 | Nc1nc2cc(F)c(C(=O)N(Cc3ccc(-c4cnn(C(F)(F)F)c4)cc3F)C34CC(C3)C4)cc2n2cncc12 [Ff-23, 4-amino-N-(bicyclo[1.1.1]pentan-1-yl)-7-fluoro-N-(2-fluoro-4-(1-(trifluoromethyl)-1H-pyrazol-4-yl)benzyl)imidazo[1,5-a]quinoxaline-8-carboxamide] | – | < 100 | – | – | –
16 | – | 1 to 5 | 62 | Nc1nc2ccc(C(=O)N(Cc3ccc(C(F)(F)F)cn3)C34CC(C3)C4)cc2n2cncc12 [Fe-1, 4-amino-N-(bicyclo[1.1.1]pentan-1-yl)-N-((5-(trifluoromethyl)pyridin-2-yl)methyl)imidazo[1,5-a]quinoxaline-8-carboxamide] | – | < 100 | – | – | –
17 | 85 | ≤ 1 | – | Cc1cc2nc(N)c3cncn3c2cc1C(=O)N(C)[C@@H]1COc2cc(C(F)(F)F)ccc21 [Ff-674, (S)-4-amino-N,7-dimethyl-N-(6-(trifluoromethyl)-2,3-dihydrobenzofuran-3-yl)imidazo[1,5-a]quinoxaline-8-carboxamide] | < 100 | – | – | – | –
18 | 59 | ≤ 1 | – | C[C@H]1C[C@@H]2Oc3cc(C(F)(F)F)ccc3[C@@H]2N(C(=O)c2ccc3nc(N)c4cncn4c3c2)C1 (single isomer, unassigned) [Ff-689] | < 100 | – | – | – | –
19 | – | ≤ 1 | 241 | CN(C(=O)c1cc2c(cc1F)nc(N)c1cncn12)[C@@H]1COCc2cc(Br)ccc21 [Ff-14, (S)-4-amino-N-(7-bromoisochroman-4-yl)-7-fluoro-N-methylimidazo[1,5-a]quinoxaline-8-carboxamide] | – | < 100 | – | – | –
20 | 128 | 1 to 5 | – | Cc1ncc2c(N)nc3cnc(C(=O)N4C[C@H](F)C[C@@H]5Oc6cc(C(F)(F)F)ccc6[C@@H]54)cc3n12 (racemic) [Ff-682, Rac-(4-amino-1-methylimidazo[1,5-a]pyrido[3,4-e]pyrazin-8-yl)((3R,4aS,9bS)-3-fluoro-7-(trifluoromethyl)-3,4,4a,9b-tetrahydrobenzofuro[3,2-b]pyridin-1(2H)-yl)methanone] | < 100 | – | – | – | –
21 | 263 | 1 to 5 | – | Cc1ncn2c1c(N)nc1cnc(C(=O)N3CCC4(CC4)[C@@H]4Oc5cc(C(F)(F)F)ccc5[C@@H]43)cc12 [Ff-678, (4-amino-3-methylimidazo[1,5-a]pyrido[3,4-e]pyrazin-8-yl)((4aS,9bS)-7-(trifluoromethyl)-2,3,4a,9b-tetrahydro-1H-spiro[benzofuro[3,2-b]pyridine-4,1′-cyclopropan]-1-yl)methanone] | < 100 | – | – | – | –
22 | 16 | > 5 | – | C[C@H](c1ncccn1)N(Cc1ccc(C(F)(F)F)cn1)C(=O)c1cc2c(cc1Cl)nc(N)n1cncc21 [Fg-3, (R)-5-amino-8-chloro-N-(1-(pyrimidin-2-yl)ethyl)-N-((5-(trifluoromethyl)pyridin-2-yl)methyl)imidazo[1,5-c]quinazoline-9-carboxamide] | 100 to 1000 | – | – | – | –

Row | SMILES | EC50 selectivity [1, 3] | EC50 [1, 4] [nM] | EC50 selectivity [1, 6] | CC50 [2, 5] [nM] | CC50 [2, 7] [nM] | EC50 ([1]; HCT116 MTAP-deleted) [nM] | CC50 [2] [nM] | CC50 selectivity [2]
23 | Nc1nc2cnc(C(=O)N3CCC[C@@H]4Oc5cc(S(F)(F)(F)(F)F)ccc5[C@@H]43)cc2n2cncc12 [Fg-42, (4-aminoimidazo[1,5-a]pyrido[3,4-e]pyrazin-8-yl)((4aS,9bS)-7-(pentafluoro-16-sulfaneyl)-3,4,4a,9b-tetrahydrobenzofuro[3,2-b]pyridin-1(2H)-yl)methanone] | 57 | – | – | – | – | ≤ 1 | < 100 | 38
